Blank lines part the entries; values can stand above or below the compound they belong to. Activity calls are given as the source filed them.
How the values were obtained:
[1] = target: T1, Corticotropin-releasing factor receptor 2/Corticotropin-releasing factor-binding protein (Homo sapiens, UniProt P24387+Q13324); experiment: activators of CRF receptor 2 with binding protein – uHTS hits, confirmation (AID 602473); format: functional; conditions: read-out: EC50_Mean
T1 sequence (Q13324 whole entry): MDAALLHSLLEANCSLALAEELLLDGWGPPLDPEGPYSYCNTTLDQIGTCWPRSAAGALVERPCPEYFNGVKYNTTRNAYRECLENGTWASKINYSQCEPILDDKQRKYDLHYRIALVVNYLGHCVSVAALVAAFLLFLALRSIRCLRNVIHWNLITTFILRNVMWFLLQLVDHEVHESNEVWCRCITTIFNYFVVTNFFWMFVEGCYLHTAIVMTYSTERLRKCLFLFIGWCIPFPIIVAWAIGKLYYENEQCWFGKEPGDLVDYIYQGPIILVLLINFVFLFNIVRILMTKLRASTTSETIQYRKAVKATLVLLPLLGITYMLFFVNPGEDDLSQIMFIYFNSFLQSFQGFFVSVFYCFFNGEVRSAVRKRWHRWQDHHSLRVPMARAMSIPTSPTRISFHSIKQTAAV
T1 sequence (P24387 whole entry): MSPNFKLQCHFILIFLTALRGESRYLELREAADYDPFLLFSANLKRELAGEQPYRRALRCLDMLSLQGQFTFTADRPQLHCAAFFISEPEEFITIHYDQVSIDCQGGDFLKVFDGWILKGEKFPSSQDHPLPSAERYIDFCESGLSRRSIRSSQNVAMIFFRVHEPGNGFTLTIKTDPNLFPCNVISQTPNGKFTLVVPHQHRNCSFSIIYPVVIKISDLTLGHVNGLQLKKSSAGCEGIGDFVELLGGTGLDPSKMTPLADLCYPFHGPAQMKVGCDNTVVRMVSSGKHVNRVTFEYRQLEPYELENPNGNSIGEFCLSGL

[2] = target: T1, Corticotropin-releasing factor receptor 2/Corticotropin-releasing factor-binding protein; experiment: Dose Response confirmation of uHTS hits for small molecule antagonists of the CRF-binding protein and CRF-R2 receptor complex.; format: functional; conditions: read-out: IC50_Mean
[3] = system: H9c2; experiment: cells; format: functional, cell-based; conditions: Rattus norvegicus, H9c2, Myocardium;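 also: confirmatory concentration-response retest of ultra-high-throughput screening hits for modulation of myocardial damage; cell death induced by hydrogen peroxide oxidative stress; compound pretreatment for 60 min then peroxide exposure for 2 h; potency is for protecting the cells against peroxide damage rather than for killing them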
[4] = target: Cytochrome P450 2D6 (Homo sapiens, UniProt P10635)
Sequence of Cytochrome P450 2D6 (P10635 whole entry): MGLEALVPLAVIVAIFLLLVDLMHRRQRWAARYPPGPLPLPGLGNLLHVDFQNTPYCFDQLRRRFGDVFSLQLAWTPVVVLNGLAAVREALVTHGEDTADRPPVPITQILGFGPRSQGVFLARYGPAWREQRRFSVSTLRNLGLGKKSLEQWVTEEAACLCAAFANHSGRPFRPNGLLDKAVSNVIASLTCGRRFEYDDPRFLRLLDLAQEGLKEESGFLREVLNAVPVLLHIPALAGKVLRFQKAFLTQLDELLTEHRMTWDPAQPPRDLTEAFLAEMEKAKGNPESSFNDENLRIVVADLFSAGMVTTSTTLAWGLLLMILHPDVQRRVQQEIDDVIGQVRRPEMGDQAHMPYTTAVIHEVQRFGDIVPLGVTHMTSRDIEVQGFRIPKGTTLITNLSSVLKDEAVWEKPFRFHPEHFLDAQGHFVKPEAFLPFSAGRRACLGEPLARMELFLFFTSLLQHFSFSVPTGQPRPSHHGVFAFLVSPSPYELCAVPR

[5] = target: T2, Cytochrome P450 1A2 (Homo sapiens, UniProt P05177);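 also: PubChem cytochrome P450 panel assay, CYP1A2 panel member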
T2 sequence (P05177 whole entry): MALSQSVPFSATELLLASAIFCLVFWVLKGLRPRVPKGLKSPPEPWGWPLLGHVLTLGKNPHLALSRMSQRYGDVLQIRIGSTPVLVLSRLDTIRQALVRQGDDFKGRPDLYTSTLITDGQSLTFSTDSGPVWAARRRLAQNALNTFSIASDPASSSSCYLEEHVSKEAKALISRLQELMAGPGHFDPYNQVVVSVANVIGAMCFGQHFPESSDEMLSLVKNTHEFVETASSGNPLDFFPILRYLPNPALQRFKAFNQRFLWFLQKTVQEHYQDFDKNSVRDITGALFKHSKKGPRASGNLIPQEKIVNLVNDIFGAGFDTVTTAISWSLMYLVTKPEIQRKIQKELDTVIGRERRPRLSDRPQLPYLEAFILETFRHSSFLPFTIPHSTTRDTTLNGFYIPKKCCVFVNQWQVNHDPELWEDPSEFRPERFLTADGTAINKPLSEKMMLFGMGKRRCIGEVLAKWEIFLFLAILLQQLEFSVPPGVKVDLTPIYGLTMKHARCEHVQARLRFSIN

[6] = target: Cytochrome P450 2C19 (Homo sapiens, UniProt P33261); experiment: Cytochrome panel assay with activity outcomes. Panel member name: p450-cyp2c19 Compounds with AC50 equal or less than 10 uM are considered active; format: functional
Sequence of Cytochrome P450 2C19 (P33261 whole entry): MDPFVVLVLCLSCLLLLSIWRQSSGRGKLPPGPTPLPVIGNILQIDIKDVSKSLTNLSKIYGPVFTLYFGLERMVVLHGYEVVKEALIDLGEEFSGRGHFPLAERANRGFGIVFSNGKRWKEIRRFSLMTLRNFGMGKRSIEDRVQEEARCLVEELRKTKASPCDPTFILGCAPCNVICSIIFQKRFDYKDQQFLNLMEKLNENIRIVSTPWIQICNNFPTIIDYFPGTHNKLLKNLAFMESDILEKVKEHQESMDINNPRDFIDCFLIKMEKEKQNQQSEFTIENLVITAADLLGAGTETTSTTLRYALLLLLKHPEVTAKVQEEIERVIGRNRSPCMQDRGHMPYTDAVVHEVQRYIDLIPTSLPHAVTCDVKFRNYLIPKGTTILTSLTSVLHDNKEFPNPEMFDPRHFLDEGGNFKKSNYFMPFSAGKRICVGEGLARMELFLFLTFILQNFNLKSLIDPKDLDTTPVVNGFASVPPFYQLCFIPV

[7] = target: Cytochrome P450 3A4 (Homo sapiens, UniProt P08684);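 also: CYP3A4 tested as one member of a cytochrome P450 panel screen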
Sequence of Cytochrome P450 3A4 (P08684 whole entry): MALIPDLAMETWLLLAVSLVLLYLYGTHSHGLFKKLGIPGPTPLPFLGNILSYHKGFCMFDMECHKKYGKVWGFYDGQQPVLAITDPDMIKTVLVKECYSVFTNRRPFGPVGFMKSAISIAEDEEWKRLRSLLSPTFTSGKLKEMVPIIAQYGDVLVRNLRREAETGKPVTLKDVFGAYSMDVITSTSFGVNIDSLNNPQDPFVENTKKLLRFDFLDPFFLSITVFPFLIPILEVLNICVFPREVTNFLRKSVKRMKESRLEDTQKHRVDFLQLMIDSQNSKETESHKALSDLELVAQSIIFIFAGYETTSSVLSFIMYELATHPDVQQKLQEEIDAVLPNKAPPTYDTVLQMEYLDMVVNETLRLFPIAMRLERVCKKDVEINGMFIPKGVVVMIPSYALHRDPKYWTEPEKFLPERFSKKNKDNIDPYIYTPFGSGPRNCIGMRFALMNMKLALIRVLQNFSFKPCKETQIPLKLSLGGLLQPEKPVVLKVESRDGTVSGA

[8] = P. falciparum Dd2 growth inhibitors, dose response, SYBR Green, cherry-picked samples (AID 1159567); format: functional, cell-based
[9] = system: BJ; experiment: BJ-TERT-LT-ST fibroblast viability loss – cell-based, RAS-independent, luminescence, dose response (AID 1935); format: functional, Homo sapiens; conditions: Homo sapiens, BJ;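 also: BJ fibroblasts immortalized with TERT plus LT and ST oncogenes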
[10] = DRD fibroblast viability loss – cell-based, non-viral oncogenic, luminescence, dose response (AID 1934); format: functional; conditions: Homo sapiens
[11] = system: BJ; experiment: cells; format: functional, cell-based, Homo sapiens; conditions: Homo sapiens, BJ
[12] = system: BJ; experiment: BJ-TERT fibroblast viability loss – cell-based, RAS-independent, luminescence, dose response (AID 1933); format: functional, Homo sapiens; conditions: Homo sapiens, BJ

EC50 [1]: > 53 µM (inactive)
IC50 [2]: > 47.1 µM (inactive)
SMILES: Cc1nnc(SCC(=O)N(C)Cc2ccccc2)nc1O

EC50 [1]: > 53 µM (inactive)
IC50 [2]: > 47.1 µM (inactive)
SMILES: CN(C)c1ncc(S(=O)(=O)c2ccc(Cl)cc2)c(-c2ccc(Cl)cc2Cl)n1

SMILES: CCOC(=O)C1=C(C)N=C(C)/C(=C(/O)OCC)C1C(=O)OCC(=O)NC1CCCCC1 (stereo not drawn)
IC50 [3]: 7.69 µM (active)

EC50 [1]: > 53 µM (inactive)
IC50 [2]: > 47.1 µM (inactive)
SMILES: CCCCn1c(N)c(N(CCC(C)C)C(=O)Cc2ccc(S(=O)(=O)N3CCOCC3)s2)c(=O)[nH]c1=O

EC50 [1]: 40.7 µM (active)
IC50 [2]: > 47.1 µM (inactive)
SMILES: C[C@H]1CN([C@@H](C)CO)C(=O)Cc2cc(NS(C)(=O)=O)ccc2O[C@@H]1CN(C)Cc1ccc(Cl)c(Cl)c1

SMILES: C=CCC[C@H](Cc1ccc(F)cc1)C(=O)OC[C@@H](Cc1c[nH]c2ccccc12)NC(=O)[C@@H](CC=C)CC(=O)NCCO
IC50 [3]: > 79 µM (inactive)

SMILES: Cc1c(Cl)cccc1NC(=O)CNC(=O)Cc1nnc(O)c2ccccc12
IC50 [3]: > 79 µM (inactive)

SMILES: COc1ccc(-c2ccc3c(c2)S(=O)(=O)c2cccc(C(=O)N4CCN(c5ccccn5)CC4)c2C3=O)cc1OC
IC50 [3]: 15 µM (active)

EC50 [1]: > 53 µM (inactive)
IC50 [2]: > 47.1 µM (inactive)
SMILES: Cc1ccc(C(=O)N/C(=C\c2cn(C)c3ccccc23)C(=O)NCCCN2CCOCC2)cc1

EC50 [1]: > 53 µM (inactive)
IC50 [2]: > 47.1 µM (inactive)
SMILES: CCOc1ccc(S(=O)(=O)N2CCN(C(=O)c3ccncc3)CC2)cc1

EC50 [1]: > 53 µM (inactive)
IC50 [2]: > 47.1 µM (inactive)
SMILES: CC[C@@H]1CCCCc2ccccc2[C@H](C(=O)C[C@H](O)CC(C)=O)OC1=O

SMILES: O=c1c(O)c(-c2ccccc2)oc2cc(O)ccc12
IC50 [3]: > 79 µM (inactive)

AC50 [4]: 11.2 µM (inconclusive)
AC50 [5]: 3.16 µM (inconclusive)
AC50 [6]: inconclusive
SMILES: O=c1c2cnn(-c3ccccc3)c2nnn1/N=C/c1cccnc1

AC50 [7]: 25.1 µM (inconclusive)
AC50 [4]: 28.2 µM (inconclusive)
SMILES: COc1cc(OC)c(OC)cc1/C=N\CC1(c2ccccc2)CCCC1

SMILES: C[C@@H](O)C#Cc1ccc([C@H]2[C@H]3CN(S(=O)(=O)c4ccccc4)CCCCN3[C@H]2CO)cc1
AC50 [8]: 7.37 µM (active)

SMILES: C[C@H]1CN([C@@H](C)CO)S(=O)(=O)c2ccc(C#Cc3ccccc3)cc2O[C@@H]1CN(C)S(=O)(=O)c1cn(C)cn1
AC50 [8]: 3.95 µM (active)

SMILES: COc1ccc2c3c([nH]c2c1)[C@@H](CO)N(Cc1cc(F)ccc1F)CC31CN(C(=O)CN(C)C)C1
AC50 [8]: 3.87 µM (active)

SMILES: Cn1c(=O)n(C)c2cc(NC(=O)CCl)ccc21
EC50 [9]: > 75 µM (inconclusive)
EC50 [10]: 28 µM (active)
EC50 [11]: 20.7 µM (inconclusive)
EC50 [12]: 18.8 µM (active)

AC50 [7]: 10 µM (inconclusive)
AC50 [4]: 31.6 µM (inconclusive)
SMILES: COc1ccccc1CNCCCCCCNCCCCCCCCNCCCCCCNCc1ccccc1OC [METHOCTRAMINE]

From ChEMBL document CHEMBL1201862, “PubChem BioAssay data set” (2004)
